According to ChEMBL document CHEMBL1201862, “PubChem BioAssay data set” (2004):
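Test compounds were applied to cells in 96-well plates for 48 hours at 5 doses. Abbreviation: GI50, concentration required for 50% inhibition of growth.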 Calls of active or inactive are those of the source. Rule as the data show it: active = GI50 up to about 1.1 µM and inactive = higher.

Tests used:
Assay in all cases: NCI anticancer screen, dose series, 48 h
A498 = test system: A498
CAKI-1 = test system: CAKI-1
COLO 205 = test system: COLO 205
HOP-62 = test system: HOP-62
IGROV-1 = test system: IGROV-1
KM12 = test system: KM12
LOX IMVI = test system: LOX IMVI
MDA-N = test system: MDA-N
NCI-H460 = test system: NCI-H460
NCI/ADR-RES = test system: NCI/ADR-RES
SF-539 = test system: SF-539
SK-MEL-2 = test system: SK-MEL-2
SK-MEL-5 = test system: SK-MEL-5
SN12C = test system: SN12C
SNB-19 = test system: SNB-19
SNB-75 = test system: SNB-75
SR = test system: SR
T47D = test system: T47D
U-251 = test system: U-251
NCI-H23 = test system: NCI-H23

Measured: GI50

Cn1c2c(c3ccccc31)CCN=C2C1CCCOC1=O (stereo not given)
inactive: A498 > 100 µM | CAKI-1 > 100 µM | COLO 205 > 100 µM | HOP-62 > 100 µM | IGROV-1 > 100 µM | KM12 > 100 µM | LOX IMVI > 100 µM | MDA-N > 100 µM | NCI-H460 > 100 µM | NCI/ADR-RES > 100 µM | SF-539 > 100 µM | SK-MEL-2 > 100 µM | SK-MEL-5 > 100 µM | SN12C > 100 µM | SNB-19 > 100 µM | SNB-75 85.9 µM | SR > 100 µM | T47D > 100 µM | U-251 > 100 µM

Clc1ccc2oc(CCC3CCCCC3)nc2c1
inactive: A498 37.8 µM | CAKI-1 24.7 µM | COLO 205 21.4 µM | HOP-62 22.3 µM | KM12 26.4 µM | LOX IMVI 4.7 µM | MDA-N 33.3 µM | NCI-H23 29.9 µM | NCI-H460 24.9 µM | NCI/ADR-RES 30.3 µM | SF-539 32.1 µM | SK-MEL-2 19.1 µM | SK-MEL-5 16.9 µM | SN12C 21.9 µM | SNB-19 42.3 µM | SNB-75 23 µM | SR 19.7 µM | T47D 20.5 µM | U-251 19.3 µM

COc1ccc2c(c1OC)C(=O)N1C2=Cc2c(cc3c(c2OC)OCO3)CC1N(C)C (stereo not given)
inactive: A498 47.8 µM | CAKI-1 > 100 µM | COLO 205 58.2 µM | HOP-62 45.9 µM | IGROV-1 > 100 µM | KM12 34 µM | MDA-N 95.3 µM | NCI-H23 34 µM | NCI-H460 28.8 µM | NCI/ADR-RES 26.4 µM | SF-539 59.2 µM | SK-MEL-2 36.2 µM | SK-MEL-5 45.1 µM | SN12C 35.9 µM | SNB-19 > 100 µM | SNB-75 29.8 µM | SR 28.9 µM | T47D 24.4 µM | U-251 49.4 µM

COC(=O)C(/C(=N/N)C(=O)Nc1cccc(O)c1)c1nc2ccccc2nc1O (stereo not given)
inactive: A498 > 100 µM | CAKI-1 > 100 µM | HOP-62 > 100 µM | IGROV-1 > 100 µM | KM12 > 100 µM | LOX IMVI > 100 µM | MDA-N > 100 µM | NCI-H23 > 100 µM | NCI-H460 > 100 µM | NCI/ADR-RES > 100 µM | SF-539 > 100 µM | SK-MEL-2 > 100 µM | SK-MEL-5 > 100 µM | SN12C > 100 µM | SNB-19 > 100 µM | SNB-75 > 100 µM | SR > 100 µM | T47D > 100 µM | U-251 > 100 µM

Cc1ccccc1/N=N/c1c(O)c(S(=O)(=O)O)cc2cc(S(=O)(=O)O)ccc12
inactive: A498 > 100 µM | CAKI-1 > 100 µM | COLO 205 > 100 µM | HOP-62 > 100 µM | IGROV-1 > 100 µM | KM12 > 100 µM | MDA-N > 100 µM | NCI-H23 > 100 µM | NCI-H460 > 100 µM | NCI/ADR-RES > 100 µM | SF-539 > 100 µM | SK-MEL-2 > 100 µM | SK-MEL-5 > 100 µM | SN12C > 100 µM | SNB-19 > 100 µM | SNB-75 70.1 µM | SR > 100 µM | T47D > 100 µM | U-251 > 100 µM

CSc1ccc2c(cc1=O)[C@@H](NC(C)=O)CCc1cc(O)c(O)c(O)c1-2
inactive: A498 23.3 µM | CAKI-1 48.4 µM | COLO 205 30.4 µM | HOP-62 18 µM | IGROV-1 15.2 µM | KM12 18.3 µM | LOX IMVI 23 µM | MDA-N 11.3 µM | NCI-H23 20.5 µM | NCI-H460 16.4 µM | NCI/ADR-RES 19.9 µM | SK-MEL-2 32.9 µM | SK-MEL-5 32.4 µM | SN12C 20.2 µM | SNB-19 29 µM | SNB-75 14.3 µM | SR 7.8 µM | T47D 60.4 µM | U-251 16.3 µM

O=c1cnn(C/C=C/CO)c(=O)[nH]1
inactive: A498 > 100 µM | CAKI-1 > 100 µM | COLO 205 > 100 µM | HOP-62 > 100 µM | IGROV-1 > 100 µM | KM12 > 100 µM | LOX IMVI 28.3 µM | MDA-N > 100 µM | NCI-H23 > 100 µM | NCI-H460 > 100 µM | NCI/ADR-RES > 100 µM | SK-MEL-2 > 100 µM | SK-MEL-5 > 100 µM | SN12C > 100 µM | SNB-19 > 100 µM | SNB-75 > 100 µM | SR > 100 µM | T47D > 100 µM | U-251 > 100 µM

COc1nc2ncc([C@@H](OC(C)=O)[C@@H](COC(C)=O)OC(C)=O)nc2c(=O)n1C
inactive: A498 > 100 µM | CAKI-1 > 100 µM | COLO 205 > 100 µM | HOP-62 > 100 µM | IGROV-1 > 100 µM | KM12 > 100 µM | LOX IMVI > 100 µM | MDA-N > 100 µM | NCI-H460 > 100 µM | NCI/ADR-RES > 100 µM | SF-539 > 100 µM | SK-MEL-2 > 100 µM | SK-MEL-5 > 100 µM | SN12C > 100 µM | SNB-19 > 100 µM | SNB-75 > 100 µM | SR > 100 µM | T47D > 100 µM | U-251 > 100 µM

CC(NC(=O)C(NC(=O)C(NC(=O)C(F)(F)F)C(C)C)C(C)C)C(=O)Oc1c(Cl)c(Cl)c(Cl)c(Cl)c1Cl (stereo not given)
inactive: A498 > 100 µM | CAKI-1 > 100 µM | COLO 205 > 100 µM | HOP-62 > 100 µM | IGROV-1 > 100 µM | KM12 > 100 µM | LOX IMVI > 100 µM | MDA-N > 100 µM | NCI-H23 > 100 µM | NCI-H460 > 100 µM | NCI/ADR-RES > 100 µM | SF-539 > 100 µM | SK-MEL-2 > 100 µM | SK-MEL-5 > 100 µM | SN12C > 100 µM | SNB-19 > 100 µM | SNB-75 > 100 µM | SR > 100 µM | T47D 83.4 µM | U-251 > 100 µM

CC(=O)O[C@H]1CC[C@@]2(C)C(=CC[C@@H]3[C@@H]2CC[C@]2(C)Nc4c(cnn4S(C)(=O)=O)C[C@@H]32)C1
inactive: A498 > 100 µM | CAKI-1 49.9 µM | COLO 205 69 µM | HOP-62 89.9 µM | IGROV-1 97.1 µM | KM12 52.8 µM | MDA-N 60.1 µM | NCI-H23 42.5 µM | NCI-H460 44.4 µM | NCI/ADR-RES > 100 µM | SK-MEL-2 > 100 µM | SK-MEL-5 16.4 µM | SN12C > 100 µM | SNB-19 > 100 µM | SNB-75 69.3 µM | SR 40.4 µM | T47D 36.1 µM | U-251 76.7 µM
